Results: patent publication US20250108119A1, “NOVEL STEROID PAYLOADS, STEROID LINKERS, ADCs CONTAINING AND USE THEREOF” (IMMUNEXT, INC., priority 2021, published 2025)
Where two headings read alike, the source gives them in different places.

Assays:
[1] = system: peritoneal resident macrophages (PRM); assay: In vivo treatment/ex vivo PRM activation, TNFα and IL-6 in supernatant; parameters: species or system hVISTA mice; conditions: linker/payloads as anti-VISTA conjugates
Method: Based thereon we developed a model to allow us to evaluate long-term anti-inflammatory impact of ADC on specific target populations, such as PRMs. […] In the absence of GC treatment, after 2h PRMs become highly activated as shown by increases in cytokine production. […] The objective of these studies was to evaluate the efficacy and pharmacodynamic range of INX human VISTA antibodies conjugated to a glucocorticoid payload as compared to free Dex.
After euthanasia, mice were injected in the peritoneal cavity with 7 ml of PBS/0.5% BSA/2 mM EDTA. After a brief massage of the peritoneum, a small incision was performed and the peritoneal lavage collected. PRM were isolated using negative selection (Miltenyi kit, ref 130-110-434). Spleen were dissected and dissociated mechanically; monocytes were isolated using […] (Stem Cell, EasySep™ Mouse CD11b Positive Selection Kit II).
PRMs were resuspended in RPMI 1640 with 10% FBS, 10 mM Hepes, Penicillin/Streptomycin and glutamine and 100,000 cells were plated per well in a 96-well tissue culture plate. Supernatants were collected at 2 and 24h post plating and stored at −80° C. […]
• BioLegend (cat #430904) ELISA MAX Deluxe Set Mouse TNF-α • BioLegend (cat #431304) ELISA MAX Deluxe Set Mouse IL-6
ELISAs were conducted following the manufacturer's included protocol.

human PBMC = assay: Cytokine production (IL-1β, IL-6) at 24 hr by human PBMC incubated with 1 ng/mL LPS; type: cell-based; conditions: free steroid payloads, serial dilutions, 1 ng/mL LPS, 24 hr
Method: (§1) FIG. 51: INX-SM-3, INX-SM-4, and INX-SM-1 inhibit IL-1β (left) and IL-6 (right) production. Cytokine levels were measured at 24 hr for human PBMCS incubated with 1 ng/mL LPS and serial dilutions (1000-1 nM) of steroid payloads, with the no treatment control plotted on the log-scale x-axis at <1 nM; n=1 donor, standard deviation plotted from technical duplicates.
as §1, with “52: INX-SM-1,” for “51:”, “INX-SM-4” for “INX-SM-4,”, “INX-SM-6” for “INX-SM-1”, “IL-1β” for “IL-1β (left) and IL-6 (right)”, “levels” for “levels were”, “ng/ml” for “ng/mL”
(§2) FIG. 53: INX-SM-9, INX-SM-31 and INX-SM-35 inhibit IL-1β (top) and IL-6 (bottom) production. Cytokine levels measured at 24 hr for human PBMCS incubated with 1 ng/mL LPS and serial dilutions (1000-0.2 nM) of steroid payloads, with the no treatment control plotted on the log-scale x-axis at <0.2 nM; n=2 donors-representative donor shown. Standard deviation plotted from technical duplicates.
as §2, with “54: INX-SM-32 inhibits” for “53: INX-SM-9, INX-SM-31 and INX-SM-35 inhibit”, “(500-1” for “(1000-0.2”, “<1” for “<0.2”, “n=2. Representative” for “n=2 donors-representative”
Cytokine levels measured at 24 hr for human PBMCS incubated with 1 ng/ml LPS and serial dilutions (1000-0.5 nM) of steroid payloads, with the no treatment control plotted on the log-scale x-axis at <0.5 nM; n=1 donor, standard deviation plotted from technical duplicates.
FIG. 56: INX-SM-2 and INX-SM-7 show inhibition in IL-1β. Average Cytokine levels measured at 24 hr for human PBMCS incubated with 1 ng/ml LPS and serial dilutions (1000-0.16 nM) of steroid payloads, with the no treatment control plotted on the log-scale x-axis at <0.16 nM; n=1, standard deviation plotted from technical duplicates. […]
Average cytokine levels measured at 24 hr for human PBMC incubated with 1 ng/ml LPS and serial dilutions (100-0.032 nM) of glucocorticoid payloads; n=1, mean of technical duplicates.
Average cytokine levels measured at 24 hr for human PBMC incubated with 1 ng/mL LPS and serial dilutions (1000-0.32 nM) of glucocorticoid payloads; n=1, mean of technical duplicates.
Cytokine levels measured at 24 hr for human PBMC incubated with 1 ng/mL LPS and serial dilutions (1000-0.5 nM) of steroid payloads, with the no treatment control plotted on the log-scale x-axis at <0.5 nM; n=1 donor, mean of technical duplicates plotted.
Average cytokine levels for A. hull-1β B. huIL-6 measured at 24 hr for human PBMC incubated with 1 ng/mL LPS and serial dilutions (1000-0.16 nM) of conjugated steroid linker payloads, with the no treatment control plotted on the log-scale x-axis at <0.16 nM; n=1, standard deviation plotted from technical duplicates. Values above the ULOQ (12,500 pg/mL for IL-1b and 150,000 pg/mL for IL-6) were plotted as the extrapolated value.
Average cytokine levels for IL-1β measured at 24 hr for human PBMC incubated with 1 ng/mL LPS and serial dilutions (1000-0.16 nM) of conjugated steroid linker payloads, with the no treatment control plotted on the log-scale x-axis at <0.16 nM; n=1, mean plotted of technical duplicates
Average cytokine levels for IL-1β measured at 24 hr for human PBMC incubated with 1 ng/mL LPS and serial dilutions (1000-0.16 nM) of conjugated steroid linker payloads, with the no treatment control plotted on the log-scale x-axis at <0.16 nM; n=1, mean plotted of technical duplicates.
FIG. 66: Analogs of INX V are potent relative to INX231J. […]

[2] = system: LPS stimulated human PBMCs; assay: LPS stimulated human PBMC, IL-1β and IL-6 ELISA; type: cell-based; conditions: for inhibition of huIL1-β: Experiment 7: free payload, INX-SM-43 100-0.032 nM, INX-SM-44 1000-0.32 nM; for inhibition of IL-1β production: Experiment 8: free payload 1000-0.5 nM
Method in brief: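 Human PBMC (1-2 healthy donors), 150,000 cells/well, treated with test agents at 1,000 nM down to 1 nM or 0.2 nM, in duplicate. LPS at 1 ng/ml added immediately after free payload or 4 h after conjugates; IL-1β and IL-6 in supernatants measured by ELISA.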

## C[C@]12C=CC(=O)C=C1CC[C@@H]1[C@@H]2[C@@H](O)C[C@@]2(C)[C@H]1C[C@H]1O[C@@H](c3ccc(Cc4cccc(NC(=O)[C@H](CCC(=O)O)NC(=O)CNC(=O)CBr)c4)cc3)O[C@]12C(=O)CO [INX J, (S)-4-(2-(2-bromoacetamido)acetamido)-5-((3-(4-((6aR,6bS,7S,8aS,8bS,10R,11aR,12aS,12bS)-7-hydroxy-8b-(2-hydroxyacetyl)-6a,8a-dimethyl-4-oxo-2,4,6a,6b,7,8,8a,8b,11a,12,12a,12b-dodecahydro-1H-naphtho[2′,1′:4,5]indeno[1,2-d][1,3]dioxol-10-yl)benzyl)phenyl)amino)-5-oxopentanoic acid, reference compound]
[1]
  potency in PRM cytokine model when dosed 7 days early (conclusions): show similar potency when dosed 7 days early

## C[C@]12C=CC(=O)C=C1CC[C@@H]1[C@@H]2[C@@H](O)C[C@@]2(C)[C@H]1C[C@H]1O[C@@H](c3ccc(OC4CC5(CC(N)C5)C4)cc3)O[C@]12C(=O)CO (stereo partly drawn) [INX-SM-43, (6aR,6bS,7S,8aS,8bS,10R,11aR,12aS,12bS)-10-(4-((6-aminospiro[3.3]heptan-2-yl)oxy)phenyl)-7-hydroxy-8b-(2-hydroxyacetyl)-6a,8a-dimethyl-1,2,6a,6b,7,8,8a,8b,11a,12, 12a,12b-dodecahydro-4H-naphtho[2′,1′:4,5]indeno[1,2-d][1,3]dioxol-4-one]
Human PBMC
  inhibition of IL-1β production: moderate inhibition
[2]
  inhibition of huIL1-β: moderate inhibition of huIL1-β

## C[C@]12C=CC(=O)C=C1CC[C@@H]1[C@@H]2[C@@H](O)C[C@@]2(C)[C@H]1C[C@H]1O[C@@H](c3ccc(OC4CC5(CC(N)C5)C4)cc3F)O[C@]12C(=O)CO (stereo partly drawn) [INX-SM-44, (6aR,6bS,7S,8aS,8bS,10R,11aR,12aS,12bS)-10-(4-((6-aminospiro[3.3]heptan-2-yl)oxy)-2-fluorophenyl)-7-hydroxy-8b-(2-hydroxyacetyl)-6a,8a-dimethyl-1,2,6a,6b,7,8,8a,8b,11a,12,12a,12b-dodecahydro-4H-naphtho[2′,1′:4,5]indeno[1,2-d][1,3]dioxol-4-one]
Human PBMC
  inhibition of IL-1β production: moderate inhibition
[2]
  inhibition of huIL1-β: moderate inhibition of huIL1-β

## C[C@]12C=CC(=O)C=C1CC[C@@H]1[C@@H]2[C@@H](O)C[C@@]2(C)[C@H]1C[C@H]1O[C@@H](c3ccc(CC4CC(N)C45CCC5)cc3)O[C@]12C(=O)CO (stereo partly drawn) [INX-SM-45, (6aR,6bS,7S,8aS,8bS,10R,11aR,12aS,12bS)-10-(4-((3-aminospiro[3.3]heptan-1-yl)methyl)phenyl)-7-hydroxy-8b-(2-hydroxyacetyl)-6a,8a-dimethyl-1,2,6a,6b,7,8,8a,8b,11a,12,12a,12b-dodecahydro-4H-naphtho[2′,1′:4,5]indeno[1,2-d][1,3]dioxol-4-one 2,2,2-trifluoroacetate]
Human PBMC
  inhibition of IL-1β production: more modest inhibition
[2]
  inhibition of IL-1β production: more modest inhibition of cytokine production

## C[C@]12C=CC(=O)C=C1CC[C@@H]1[C@@H]2[C@@H](O)C[C@@]2(C)[C@H]1C[C@H]1O[C@@H](c3ccc(CC4CC45CCC(N)CC5)cc3)O[C@]12C(=O)CO (stereo partly drawn) [INX-SM-46, (6aR,6bS,7S,8aS,8bS,10R,11aR,12aS,12bS)-10-(4-((6-aminospiro[2.5]octan-1-yl)methyl)phenyl)-7-hydroxy-8b-(2-hydroxyacetyl)-6a,8a-dimethyl-1,2,6a,6b,7,8,8a,8b,11a,12,12a,12b-dodecahydro-4H-naphtho[2′,1′:4,5]indeno[1,2-d][1,3]dioxol-4-one 2,2,2-trifluoroacetate]
Human PBMC
  inhibition of IL-1β production: more modest inhibition
[2]
  inhibition of IL-1β production: more modest inhibition of cytokine production

## C[C@]12C=CC(=O)C=C1CC[C@@H]1[C@@H]2[C@@H](O)C[C@@]2(C)[C@H]1C[C@H]1O[C@@H](c3ccc(CC4CC5(CNC5)C4)cc3)O[C@]12C(=O)CO [INX-SM-47, (6aR,6bS,7S,8aS,8bS,10R,11aR,12aS,12bS)-10-(4-((2-azaspiro[3.3]heptan-6-yl)methyl)phenyl)-7-hydroxy-8b-(2-hydroxyacetyl)-6a,8a-dimethyl-1,2,6a,6b,7,8,8a,8b,11a,12,12a,12b-dodecahydro-4H-naphtho[2′,1′:4,5]indeno[1,2-d][1,3]dioxol-4-one 2,2,2-trifluoroacetate]
Human PBMC
  inhibition of IL-1β production: weakly inhibit
  inhibition of IL-6 production: weakly inhibit
[2]
  inhibition of IL-1β and IL-6: weakly inhibit IL-1β and IL-6

## CNC1CC(Cc2ccc([C@@H]3O[C@@H]4C[C@H]5[C@@H]6CCC7=CC(=O)C=C[C@]7(C)[C@H]6[C@@H](O)C[C@]5(C)[C@]4(C(=O)CO)O3)cc2)C1 (stereo partly drawn) [INX-SM-49, (6aR,6bS,7S,8aS,8bS,10R,11aR,12aS,12bS)-7-hydroxy-8b-(2-hydroxyacetyl)-6a,8a-dimethyl-10-(4-((3-(methylamino)cyclobutyl)methyl)phenyl)-1,2,6a,6b,7,8,8a,8b,11a,12,12a,12b-dodecahydro-4H-naphtho[2′,1′:4,5]indeno[1,2-d][1,3]dioxol-4-one]
Human PBMC
  inhibition of IL-1β production: weakly inhibit
  inhibition of IL-6 production: weakly inhibit
[2]; Experiment 12: free payloads 1000-0.15 nM
  inhibition of IL-1β and IL-6: weakly inhibit IL-1β and IL-6
